Measured values reported in patent publication US20020193425A1, “Cancer chemopreventative compounds and compositions and methods of treating cancers” (priority 2001, published 2002).
Converted amounts (≈) assume the structure as drawn.

Experiments:
BV173 = test: Antiproliferative activity, [3H]thymidine incorporation; type: cell-based; details: four days
Description: (§1) Cellular viability was monitored by Trypan blue exclusion.
(§2) ^bproliferation was assayed by [^3H]thymidine incorporation with quadruplicate samples, as described under “Materials and methods”.

DHL-6 = test: as above; type: cell-based; details: four days
Description: as §1, §2

Daudi = test: as above; type: cell-based; details: four days
Description: as §1, §2

HL-60 = test: as above; type: cell-based; details: Homo sapiens, 96 h, four days, read-out: Antiproliferative Activity (IC50, ng/ml)
Description: as §1, §2

K562 = test: as above; type: cell-based; details: Homo sapiens, 96 h, four days, read-out: Antiproliferative Activity (IC50, ng/ml)
Description: as §1, §2

Kasumi-1 = test: as above; type: cell-based; details: Homo sapiens, 96 h, four days, read-out: Antiproliferative Activity (IC50, ng/ml)
Description: as §1, §2

NB4 = test: as above; type: cell-based; details: four days
Description: as §1, §2

[1] = tested on: Peripheral Human Lymphocytes; test: as above; type: cell-based; details: Lymphocyte, 72 h, three days, concanavalin A (0.4 μg/ml), read-out: Antiproliferative Activity (IC50, ng/ml)
Description: as §1, §2

RS4;11 = test: as above; type: cell-based; details: Homo sapiens, 96 h, four days, read-out: Antiproliferative Activity (IC50, ng/ml)
Description: as §1, §2

Reh = test: as above; type: cell-based; details: Homo sapiens, 96 h, four days, read-out: Antiproliferative Activity (IC50, ng/ml)
Description: as §1, §2

SUPB13 = test: as above; type: cell-based; details: 96 h, four days, read-out: Antiproliferative Activity (IC50, ng/ml)
Description: as §1, §2

U937 = test: as above; type: cell-based; details: four days
Description: as §1, §2

c-Myc oncoprotein, HL-60 = test: c-Myc oncoprotein expression, western blotting; type: cell-based, human
Description: The expression of c-Myc was assessed by immunoblots as previously described. In brief, cells (10^6) were treated and harvested at various time intervals, and whole-cell pellets were lysed with detergent lysis buffer (1 ml/10^7 cells, 50 mM Tris-HCl buffer, pH 8.0, 150 mM NaCl, 1 mM DTT, 0.5 mM EDTA, 1% Nonidet® P40, 0.5% sodium deoxycholate, 0.1% sodium dodecylsulfate, 100 μg/ml phenylmethylsulfonyl fluoride, 1 μg/ml aprotinin, 2 μg/ml leupeptin and 100 μM sodium vanadate) to obtain protein lysates. Protein concentrations were quantified using a bicinchoninic acid kit. Since c-Myc is a labile protein, cell lysates were not frozen, but stored at 4° C., until all protein lysates were prepared for a particular cell line, and then western blots were performed immediately. Total protein ([…]) was separated by 10% SDS-PAGE, electroblotted to PVDF membranes, and blocked overnight with 5% nonfat dry milk. The membrane was incubated with a solution of the primary antibody (2.5 μg/ml), prepared in 1% blocking solution, for 2 h at room temperature, washed three-times for 15 min with PBS-T (PBS with 0.1%, v/v, Tween 20), and incubated with a 1:2500 dilution of horseradish peroxidase-conjugated secondary antibody for 30 min at 37° C. Blots were again washed three-times for 10 min each in PBS-T and developed by enhanced chemiluminescence (Amersham). Membranes were exposed to Kodak Biomax film and the resulting film was analyzed using Kodak 1D Image Analysis software. Membranes were then stripped and reprobed for the quantification of bactin.
Cells were treated with solvent (0.1% v/v DMSO, control), brusatol (25 ng/ml) or bruceantin (10 ng/ml) for 4 or 24 h, then analyzed by western blotting. Membranes were probed for c-Myc, and then stripped and probed for β-actin as an internal control.
Cells were treated with brusatol (25 ng/ml) or bruceantin (10 ng/ml) for 4 or 24 h, and then analyzed for c-Myc and β-actin expression using western blotting techniques. Results are expressed as percentage of c-Myc oncoprotein of control (0.1%, v/v, DMSO treated cells) values. Results were normalized relative to β-actin.

[2] = tested on: HL-60 (human promyelocytic) cells; test: HL-60 cell proliferation assay of quassinoids, [3H]thymidine incorporation; type: cell-based; details: for IC50: Homo sapiens, 4-day incubation, [3H]thymidine incorporation, read-out: inhibition of proliferation (IC50); for selectivity index: ratio of cytotoxic IC50 over antiproliferative IC50
Description: (§3) Induction of differentiation was determined by the ability of treated cells to produce superoxide anions (nitroblue tetrazolium (NBT)-reduction), a functional marker of mature macrophages or granulocytes. Proliferation capacity is equivalent to cell growth and was measured by incorporation of [3H]thymidine into DNA over a period of 18 h, and cytotoxic activity was evaluated by the loss of membrane integrity as shown by trypan blue exclusion. […] Although members of the brusatol and glaucarubolone series were active, when comparing members of both series that varied only in the positioning of the epoxymethano bridge, great differences were noted, as shown with yadianzolide C (5) and glaucarubolone (24), and analogues 4 (brusatol series) and 32 (glaucarubolone series).
(§4) HL-60 (human promyelocytic) cells were tested using a 4-day incubation protocol. In brief, cells in log phase (approximately 10^6 cells/mL) were diluted to […] and preincubated overnight (18 h) in 24-well plates to allow cell-growth recovery. Then, samples dissolved in DMSO were added, keeping the final DMSO concentration at 0.1% (v/v). Control cultures were treated with the same concentration of DMSO. After 4 days of incubation, the cells were analyzed to determine the percentage of cells undergoing maturation as determined by NBT reduction. Concomitantly, the effect on viability and proliferation of HL-60 cells was determined. In each experiment, 1α, 25-dihydroxyvitamin D3 (EC50=0.01 μM) and brusatol (EC50=0.07 μM) were used as reference controls. EC50 and IC50 values were calculated using 5-7 test concentrations (in duplicate), and consistent results were obtained, indicating the data reported for the related quassinoids are reliable.
(3) Cell Proliferation Assay. […] Cells were then collected on glass fiber filters (90×120 mm; Wallac, Turku, Finland) using a TOMTEC Harvester 96®.

[3] = tested on: HL-60 (human promyelocytic) cells; test: HL-60 cell differentiation of quassinoids, NBT reduction; type: cell-based; details: Homo sapiens, HL-60, 96 h, read-out: induction of differentiation (EC50, μM)
Description: as §3, §4
(1) Nitroblue Tetrazolium (NBT) Reduction. Evaluation of NBT reduction was used to assess the ability of sample-treated HL-60 cells to produce superoxide when challenged with 12-O-tetradecanoylphorbol 13-acetate (TPA). A 1:1 v/v) mixture of a cell suspension (10^6 cells) and TPA/NBT solution (2 mg/mL NBT and 1 μg/mL TPA in phosphate buffered solution) was incubated for 1 h at 37° C. Positive cells reduce NBT yielding intracellular black-blue formazan deposits, which were quantified by microscopic examination of >200 cells. Results were expressed as a percentage of positive cells.

Structure (SMILES) | Antiproliferative Activity (IC50, ng/ml) (BV173) | Antiproliferative Activity (IC50, ng/ml) (DHL-6) | Antiproliferative Activity (IC50, ng/ml) (Daudi) | IC50 (HL-60) | IC50 (K562) | IC50 (Kasumi-1) | Antiproliferative Activity (IC50, ng/ml) (NB4) | IC50 [1] | IC50 (RS4;11) | IC50 (Reh) | IC50 (SUPB13) | Antiproliferative Activity (IC50, ng/ml) (U937) | decrease of c-Myc protein levels (c-Myc oncoprotein, HL-60; 4 h treatment) | c-Myc oncoprotein, percentage of control (c-Myc oncoprotein, HL-60; Brusatol (25 ng/ml), 4 h) | c-Myc oncoprotein, percentage of control (c-Myc oncoprotein, HL-60; Brusatol (25 ng/ml), 24 h) | IC50 [2] | selectivity index [2] | EC50 [3] | c-Myc oncoprotein, percentage of control (c-Myc oncoprotein, HL-60; Bruceantin (10 ng/ml), 4 h) | c-Myc oncoprotein, percentage of control (c-Myc oncoprotein, HL-60; Bruceantin (10 ng/ml), 24 h)
COC(=O)[C@@]12OC[C@]34[C@H]([C@@H](O)[C@@H]1O)[C@@]1(C)CC(=O)C(O)=C(C)[C@@H]1C[C@H]3OC(=O)[C@H](OC(=O)C=C(C)C)[C@@H]24 [compound 1, brusatol] | No effect | No effect | No effect | 25 ± 0.5 ng/mL (≈ 0.048 µM) | 10 ± 0.2 ng/mL (≈ 0.0192 µM) | 7 ± 0.6 ng/mL (≈ 0.0134 µM) | No effect | 7.5 ± 0.3 ng/mL (≈ 0.0144 µM) | 12.5 ± 0.6 ng/mL (≈ 0.024 µM) | 37 ± 5.6 ng/mL (≈ 0.0711 µM) | 37 ± 1.9 ng/mL (≈ 0.0711 µM) | No effect | 100% | 0% | 17% | 70 ± 7 nM | 2.5 ± 0.3 | 0.07 µM | – | –
COC(=O)[C@@]12OC[C@]34[C@H]([C@@H](O)[C@@H]1O)[C@@]1(C)CC(=O)C(O)=C(C)[C@@H]1C[C@H]3OC(=O)[C@H](OC(=O)/C=C(\C)C(C)C)[C@@H]24 [compound 2, bruceantin] | No effect | No effect | No effect | 20 ± 0.1 ng/mL (≈ 0.0365 µM) | 6 ± 0.1 ng/mL (≈ 0.0109 µM) | 3.2 ± 0.1 ng/mL (≈ 0.00583 µM) | No effect | 3 ± 0.3 ng/mL (≈ 0.00547 µM) | 5.4 ± 0.9 ng/mL (≈ 0.00984 µM) | 12.5 ± 0.8 ng/mL (≈ 0.0228 µM) | 10 ± 0.5 ng/mL (≈ 0.0182 µM) | No effect | – | – | – | 40 ± 3 nM | 1.0 ± 0.2 | 0.02 ± 0.002 µM | 3% | 57%
